Measured values: patent publication US9353082B2, “Pharmaceutical compounds” (BIAL—PORTELA & CA, S.A., priority 2008, dated 2016)

Biological target: T1, FAAH (Mus musculus, UniProt O08914)
T1 construct: A fragment of liver, left lung lobe and brain without cerebellum were removed; from tissue; host or cells: male NMRI mice; brain (without cerebellum) and liver homogenates
T1 sequence (O08914 1-579): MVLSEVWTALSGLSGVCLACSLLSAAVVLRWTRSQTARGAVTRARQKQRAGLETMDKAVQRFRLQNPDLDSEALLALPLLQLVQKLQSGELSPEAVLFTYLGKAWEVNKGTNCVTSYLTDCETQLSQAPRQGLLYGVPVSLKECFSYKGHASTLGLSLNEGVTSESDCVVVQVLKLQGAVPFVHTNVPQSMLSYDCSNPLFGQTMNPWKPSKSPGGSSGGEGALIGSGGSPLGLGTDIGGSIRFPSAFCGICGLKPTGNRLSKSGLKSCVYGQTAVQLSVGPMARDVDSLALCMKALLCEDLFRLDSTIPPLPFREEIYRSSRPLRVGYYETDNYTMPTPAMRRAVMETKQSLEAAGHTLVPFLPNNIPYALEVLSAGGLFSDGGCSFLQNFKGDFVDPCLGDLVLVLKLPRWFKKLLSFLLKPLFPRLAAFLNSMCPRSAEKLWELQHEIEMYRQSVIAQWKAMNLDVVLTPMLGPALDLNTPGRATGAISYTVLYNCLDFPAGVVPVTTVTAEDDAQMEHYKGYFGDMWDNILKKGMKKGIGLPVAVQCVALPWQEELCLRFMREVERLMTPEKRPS
Experiment: In vivo FAAH inhibition after oral dosing, remaining activity in brain homogenate (BRh, central nervous tissue)
Design: species or system NMRI mice
Conditions: 8 h
Summary of the method: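 Remaining FAAH activity is given as % of vehicle-treated controls after blank subtraction, measured by radiolabelled AEA hydrolysis (2 μM AEA, 5 nM 3H-AEA, 37 °C) in brain (10 min) or liver (7 min) homogenates. These came from fasted male NMRI mice dosed orally at 30 or 3 mg/kg.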

- In Vivo BRh 3 mg/kg 8 h, remaining FAAH activity (brain homogenate, 3 mg/kg): 120.6 % of control
- FAAH BRh 3 mg · kg · 8 h (in vivo, mouse brain, 3 mg/kg oral, remaining enzymatic activity): 120.6 % of control
Compound: COc1cccc(-c2cn(C(=O)N3CCCc4ccccc43)cn2)c1 [Compound 39, (3,4-dihydroquinolin-1(2H)-yl)(4-(3-methoxyphenyl)-1H-imidazol-1-yl)methanone]
